Entries after “also recorded” stand apart in the source; their conditions may differ.
Tests used:
Type in all cases: cell-based
[1] = system: primary CD3+ T lymphocytes; experiment: Mixed-cell assay, T lymphocytes in mixed PBMC population by flow cytometry; details: up to 50 μM; healthy, PV and SLE plasma; FIG. 5F
Procedure: (§1) 0.5×10^6 primary cells (purified CD19+ primary B cells (Precision for Medicine, MD) or 0.5×10^6 CD3+ primary T cells (Precision for Medicine, MD Primary PBMCs (Precision for Medicine, MD) from a healthy donor were stimulated with 10% v/v plasma from either a healthy donor, a pemphigus vulgaris (PV) donor, or a systemic lupus erythematosus (SLE) donor for 24 hours at 37 C, 5% CO2. Compound OTG177 was added at 1 μM, 10 μM and 50 μM concentrations with DMSO as a mock treatment. After 24 hours-72 hours of treatment, cells were labeled with anti-CD45 antibody (5 μl/million cells in 100 μl volume, clone HI30, BUV395, Biolegend, CA), anti-CD19 antibody (5 μl per million cells in 100 μl volume, Clone HIB, PE-CF594, Biolegend, CA) anti-CD3 antibody (5 μl/million cells in 100 μl volume, clone SK7, FITC, Biolegend, CA). Propidium (1 μg/ml) was used to select cells based on their viability. The cells were analyzed by multi-colored flow cytometry using an Attune NxT Flow Cytometer (ThermoFisher).
(§2) In addition, the effect of OTG177 on B and T lymphocytes was examined by first gating all PBMCs by forward scattering (FSC) versus side scattering (SSC) and isolating the low SSC and high FSC population (FIG. 5C), gating on this selection, the populations of segregated based on their staining to CD19 (red) and CD3 antibodies (green) (FIG. 5D).

[2] = system: CD19+ primary B cells; experiment: BrdU incorporation proliferation assay, primary B cells stimulated with donor plasma; details: OTG177 up to 1000 μM, 72 hours
Procedure: (§3) 0.5×10^6 primary cells (purified CD19+ primary B cells, Precision for Medicine, MD) or 0.5×10^6 CD3+ primary T cells (Precision for Medicine, MD) from a healthy donor were assayed for their rate of proliferation via the BrdU incorporation method (Roche kit 11647229001), following vendor protocols. In brief, BrdU was added to cell culture for 2 hours-12 hours. The cells were dried with hot air ventilation and fixed with saline and ethanol. The incorporated BrdU was measured with an ELISA assay with an anti BrdU antibody (Roche).
(§4) A representative compound according to the disclosure, OTG177 (FIG. 4), was constructed according to the synthetic scheme shown in FIGS. 2A and 2B using the Bait CD10 substrate succinyl-Ala-Ala-Phe- and an antiproliferative Payload RMP. This compound was tested in this proliferation assay as follows: negative selected lymphocytes (either B or T cells) were incubated with different concentration of OTG177 up to 1000 μM with 10% plasma from either a healthy donor or a flaring Pemphigus Vulgaris donor. All conditions had 30 units/ml of heparin to prevent clotting of the plasma. Cells were incubated for 72 hours at 37° C. 5% CO2 and a BrdU incorporation assay was performed with kit (Roche) as described before.

[3] = system: PBMC (granulocytes, monocytes, lymphocytes); experiment: Mixed-cell assay, PBMC composition by flow cytometry (SSC vs CD45); details: up to 50 μM; healthy, PV or SLE donor plasma; FIG. 5B
Procedure: as §1
Overall peripheral blood mononuclear cell (PBMC) composition was evaluated by gating side scattering (SSC) versus CD45, a pan leukocyte marker (FIG. 5A). This gating strategy can differentiate different leukocyte populations based on their scattering profiles.

[4] = system: primary CD19+ B lymphocytes; experiment: Mixed-cell assay, B lymphocytes in mixed PBMC population by flow cytometry; details: FIG. 5E; for suppression of B cell proliferation in mixed PBMC population: 1 μM to 50 μM range
Procedure: as §1, §2

[5] = system: CD3+ primary T cells; experiment: BrdU incorporation proliferation assay, primary T cells stimulated with donor plasma; details: OTG177 up to 1000 μM, 72 hours
Procedure: as §3, §4

## C[C@H](NC(=O)CCC(=O)O)C(=O)N[C@@H](C)C(=O)N[C@@H](Cc1ccccc1)C(=O)Nc1ccc2c(c1)COP(=O)(OC[C@H]1O[C@@H](n3cnc(C(N)=O)n3)[C@H](O)[C@@H]1O)O2 (stereo partly drawn) [OTG177, 4-[[(1S)-2-[[(1S)-2-[[(1S)-1-benzyl-2-[[2-[[(2R,3S,4R,5R)-5-(3-carbamoyl-1,2,4-triazol-1-yl)-3,4-dihydroxy-tetrahydrofuran-2-yl]methoxy]-2-oxo-4H-1,3,2benzodioxaphosphinin-6-yl]amino]-2-oxo-ethyl]amino]-1-methyl-2-oxo-ethyl]amino]-1-methyl-2-oxo-ethyl]amino]-4-oxo-butanoic Acid]
[1]
  effect on T cells in mixed PBMC population: not affected; also recorded: no obvious effect
[2]; 10% flaring pemphigus vulgaris donor's plasma, FIG. 4C
  antiproliferative activity in B cells: strong antiproliferative activity
[2]; 10% healthy donor's plasma, FIG. 4B
  antiproliferative activity in B cells: did not exhibit detectable antiproliferative activity
[3]
  effect on PBMC composition (% granulocytes, monocytes, lymphocytes): not affected; also recorded: does not have obvious effects
[4]; stimulated with PV plasma
  suppression of B cell proliferation in mixed PBMC population: dose-dependent suppression; also recorded: suppressive effect
[4]; stimulated with SLE plasma
  suppression of B cell proliferation in mixed PBMC population: dose-dependent suppression; also recorded: suppressive effect
[4]; stimulated with healthy plasma, 1, 10, 50 μM
  effect on B cells in mixed PBMC population: not affected
[5]; 10% flaring pemphigus vulgaris donor's plasma, FIG. 4E
  antiproliferative activity in T cells: did not exhibit antiproliferative activity
[5]; 10% healthy donor's plasma, FIG. 4D
  antiproliferative activity in T cells: did not exhibit antiproliferative activity

Source: patent publication US20240350649A1, “TREATMENT AND DIAGNOSIS OF IMMUNE DISORDERS RELATING TO ABERRANT IMMUNE CELLS” (Octagon Therapeutics, Inc., priority 2021, published 2024)
